This passage reports EC50 results from patent US9765067B2, “Thiophen-2-yl-pyridin-2-yl-1H-pyrazole-4-carboxylic acid derivatives and the use thereof as soluble guanylate cyclase activators” (Novartis AG, priority 2014, dated 2017).

SMILES strings stand for the structures. pEC50: −log10 of the molar value.

The assay addresses T1, soluble guanylate cyclase (human GUCYA3/GUCYB3) overexpressed in CHO cells (Homo sapiens, UniProt Q02108+Q02153).
T1 construct: expressed in transfected cells
T1 sequence (Q02108 1-690 partner): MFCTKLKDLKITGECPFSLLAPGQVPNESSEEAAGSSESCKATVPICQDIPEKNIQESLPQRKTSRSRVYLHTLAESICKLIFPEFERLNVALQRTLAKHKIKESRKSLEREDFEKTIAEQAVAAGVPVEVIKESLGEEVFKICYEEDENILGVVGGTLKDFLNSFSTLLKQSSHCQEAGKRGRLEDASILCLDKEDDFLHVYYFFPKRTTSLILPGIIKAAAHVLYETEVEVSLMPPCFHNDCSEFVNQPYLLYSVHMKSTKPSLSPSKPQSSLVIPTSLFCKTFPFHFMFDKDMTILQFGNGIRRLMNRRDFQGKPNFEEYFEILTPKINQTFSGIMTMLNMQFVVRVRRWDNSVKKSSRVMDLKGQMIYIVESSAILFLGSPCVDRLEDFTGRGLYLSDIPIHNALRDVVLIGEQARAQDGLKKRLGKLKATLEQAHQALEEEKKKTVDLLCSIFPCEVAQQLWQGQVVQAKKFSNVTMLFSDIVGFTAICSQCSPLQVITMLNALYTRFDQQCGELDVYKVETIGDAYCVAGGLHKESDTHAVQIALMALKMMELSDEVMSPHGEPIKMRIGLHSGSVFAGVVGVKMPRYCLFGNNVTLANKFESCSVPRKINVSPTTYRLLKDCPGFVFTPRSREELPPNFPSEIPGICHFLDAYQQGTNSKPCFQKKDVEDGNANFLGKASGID
T1 sequence (Q02153 1-619): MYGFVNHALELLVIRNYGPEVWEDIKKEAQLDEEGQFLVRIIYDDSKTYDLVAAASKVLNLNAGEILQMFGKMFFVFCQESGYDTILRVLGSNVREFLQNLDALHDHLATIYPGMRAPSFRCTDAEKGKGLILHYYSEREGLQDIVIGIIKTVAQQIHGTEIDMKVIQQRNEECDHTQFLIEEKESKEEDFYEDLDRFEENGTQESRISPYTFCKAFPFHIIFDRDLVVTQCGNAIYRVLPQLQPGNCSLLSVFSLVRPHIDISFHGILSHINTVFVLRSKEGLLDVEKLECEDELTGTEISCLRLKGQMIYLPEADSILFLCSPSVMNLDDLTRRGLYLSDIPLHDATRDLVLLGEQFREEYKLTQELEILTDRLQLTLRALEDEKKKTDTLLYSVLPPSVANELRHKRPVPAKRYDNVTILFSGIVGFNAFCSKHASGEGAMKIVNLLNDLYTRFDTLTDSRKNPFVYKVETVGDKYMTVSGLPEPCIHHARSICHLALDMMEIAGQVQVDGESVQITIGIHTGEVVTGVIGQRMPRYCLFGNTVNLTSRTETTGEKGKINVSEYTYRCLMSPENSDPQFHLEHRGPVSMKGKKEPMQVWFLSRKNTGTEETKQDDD
Put plainly: CHO cellular assay (cGMP production, HTRF). The format is cell-based. The following applies: CHO K1 clone 8E10 overexpressing human sGC, Cisbio HTRF, 1 h room temperature, 1 mM IBMX, 20 uM ODQ, minimum quantification limit 0.5 nM. The method in brief:
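Stable CHO K1 clone expressing human GUCYA3/GUCYB3. Compounds applied 1 h at room temperature in HBSS, 0.1% BSA, 1 mM IBMX, 20 uM ODQ, 0.5% DMSO. cGMP measured by HTRF and interpolated from a standard curve; EC50 from 4-parameter sigmoidal fit.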
(TR-FRET usually uses a lanthanide donor and a delayed reading to cut background.)
`CCc1nc(OCc2cc(C)sc2-c2cccc(-n3ncc(C(=O)O)c3C(F)(F)F)n2)ccc1C1CCN(C(=O)C2CC2)CC1` [Example 39, 1-(6-(3-(((5-(1-(Cyclopropanecarbonyl)piperidin-4-yl)-6-ethylpyridin-2-yl)oxy)methyl)-5-methylthiophen-2-yl)pyridin-2-yl)-5-(trifluoromethyl)-1H-pyrazole-4-carboxylic acid] showed a negative logarithm of the EC50 (pEC50) of 9.00.
Regarding `Cc1cc(C2CCN(CC(F)(F)F)CC2)ccc1OCc1cc(C(C)C)sc1-c1cccc(-n2ncc(C(=O)O)c2C(F)(F)F)n1` [Example 40, 1-(6-(5-Isopropyl-3-((2-methyl-4-(1-(2,2,2-trifluoroethyl)piperidin-4-yl)phenoxy)methyl)thiophen-2-yl)pyridin-2-yl)-5-(trifluoromethyl)-1H-pyrazole-4-carboxylic acid], the pEC50 is 6.43.
As for `CCCc1cc(COc2ccc(C3CCN(CC(F)(F)F)CC3)cc2C)c(-c2cccc(-n3ncc(C(=O)O)c3C(F)(F)F)n2)s1` [Example 41, 1-(6-(3-((2-Methyl-4-(1-(2,2,2-trifluoroethyl)piperidin-4-yl)phenoxy)methyl)-5-propylthiophen-2-yl)pyridin-2-yl)-5-(trifluoromethyl)-1H-pyrazole-4-carboxylic acid], the figure is 6.37; as for `Cc1cc(C2CCN(C(=O)C3CNC3)CC2)ccc1OCc1ccsc1-c1cccc(-n2ncc(C(=O)O)c2C(F)(F)F)n1` [Example 43, 1-(6-(3-((4-(1-(Azetidine-3-carbonyl)piperidin-4-yl)-2-methylphenoxy)methyl)thiophen-2-yl)pyridin-2-yl)-5-(trifluoromethyl)-1H-pyrazole-4-carboxylic acid], 6.05.
The value for `CCc1c(C(=O)O)cnn1-c1cccc(-c2sc(C)cc2CCc2ccc(C3CCN(C(=O)C4CC4)CC3)cc2C)n1` [Example 45, 1-(6-(3-(4-(1-(Cyclopropanecarbonyl)piperidin-4-yl)-2-methylphenethyl)-5-methylthiophen-2-yl)pyridin-2-yl)-5-ethyl-1H-pyrazole-4-carboxylic acid] was not below 9.30; that for `Cc1cc(CCc2ccc(C3CCN(C(=O)OC(C)(C)C)CC3)cc2C)c(-c2cccc(-n3ncc(C(=O)O)c3C(F)(F)F)n2)s1` [Example 46, 1-(6-(3-(4-(1-(tert-Butoxycarbonyl)piperidin-4-yl)-2-methylphenethyl)-5-methylthiophen-2-yl)pyridin-2-yl)-5-(trifluoromethyl)-1H-pyrazole-4-carboxylic acid] was 8.52.

The term pEC50 denotes the EC50 on a negative log10 scale, so that one unit is a factor of ten. A high value points to a low EC50.
